This is an account of results in ChEMBL document CHEMBL5537167, “Rising Star in Immunotherapy: Development and Therapeutic Potential of Small-Molecule Inhibitors Targeting Casitas B Cell Lymphoma-b (Cbl-b)” (J Med Chem, 2024).

A short description of series [1]: Metabolic stability in human liver microsomes assessed as intrinsic clearance.
The nature of series [2]: Metabolic stability in mouse liver microsomes assessed as intrinsic clearance.
The target in series [3] is T1, E3 ubiquitin-protein ligase CBL-B (Homo sapiens, UniProt Q13191). Put plainly: Inhibition of Cbl-b (unknown origin) by Cellular substrate assay.
T1 sequence (Q13191 whole entry): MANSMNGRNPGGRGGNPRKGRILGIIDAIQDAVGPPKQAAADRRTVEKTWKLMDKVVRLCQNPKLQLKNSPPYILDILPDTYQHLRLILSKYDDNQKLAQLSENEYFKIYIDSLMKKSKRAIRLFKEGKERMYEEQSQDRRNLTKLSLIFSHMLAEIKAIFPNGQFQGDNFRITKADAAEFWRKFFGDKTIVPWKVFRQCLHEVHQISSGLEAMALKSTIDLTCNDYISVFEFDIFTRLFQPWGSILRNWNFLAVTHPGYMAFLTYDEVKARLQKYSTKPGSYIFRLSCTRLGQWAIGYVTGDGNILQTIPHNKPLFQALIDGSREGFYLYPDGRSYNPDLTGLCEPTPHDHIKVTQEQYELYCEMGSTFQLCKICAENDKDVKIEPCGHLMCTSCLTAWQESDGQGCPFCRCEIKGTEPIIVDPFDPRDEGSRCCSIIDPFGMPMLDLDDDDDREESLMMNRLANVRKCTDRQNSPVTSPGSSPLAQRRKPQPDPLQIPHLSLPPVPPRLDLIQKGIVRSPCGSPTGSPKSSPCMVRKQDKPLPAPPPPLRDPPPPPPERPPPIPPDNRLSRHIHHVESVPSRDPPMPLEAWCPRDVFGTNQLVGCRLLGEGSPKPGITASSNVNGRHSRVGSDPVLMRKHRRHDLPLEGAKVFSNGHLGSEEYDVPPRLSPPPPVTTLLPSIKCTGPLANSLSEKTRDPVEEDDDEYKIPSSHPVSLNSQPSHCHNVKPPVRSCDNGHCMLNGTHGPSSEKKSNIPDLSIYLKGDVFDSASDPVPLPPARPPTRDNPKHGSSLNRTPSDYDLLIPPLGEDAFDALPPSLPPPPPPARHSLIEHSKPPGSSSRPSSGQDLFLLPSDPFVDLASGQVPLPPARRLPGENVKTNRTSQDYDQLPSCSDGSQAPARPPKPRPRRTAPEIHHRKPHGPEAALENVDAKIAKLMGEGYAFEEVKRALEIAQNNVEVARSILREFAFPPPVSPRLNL
The nature of series [4]: in vitro. The conditions noted are these: rat, plasma.
Series [5] deals with T1, E3 ubiquitin-protein ligase CBL-B. Description: Inhibition of CBL-B (unknown origin) by FRET assay.
For series [6] the target is unchanged.
Description: Inhibition of N-terminal biotinylated Avi-tagged Cbl-b (36 to 427 residues) (unknown origin) by SPR assay
For series [7] the target is unchanged. Description: Inhibition of CBL-B (unknown origin) by biochemical assay.
Series [8] concerns Panel NCI-60 (60 carcinoma cell lines). Put plainly: Anti-proliferative activity against human Panel NCI-60 (60 carcinoma cell lines).
In series [9] the target is T1, E3 ubiquitin-protein ligase CBL-B. Description: Inhibition of Cbl-b (unknown origin) using fluorophore-labeled probe by TR-FRET based Cb1-b displacement assay.
Series [10] shares this target. Put plainly: Inhibition of Cbl-b (unknown origin) by TR-FRET assay.

On to `Cc1cc(C(=O)Nc2cccc(C3(Cc4nncn4C)COC3)c2)nc(C2CC2)n1`, for which the CLint scaled worked out at 7 mL/min/kg in series [1] and 26 mL/min/kg in series [2]. The molecule also came in with an IC50 in series [3] of 790 nM. This molecule returned a half-life in series [4] of over 16.7 h.
With `Cc1cc(C(=O)Nc2cccc([C@H](C)Cc3nncn3C)c2)nc(C2CC2)n1`, the values for the IC50 in [5] and in series [3] were 38 nM and 780 nM, respectively. Further, the CLint scaled in [2] stood at 67 mL/min/kg. This molecule displayed a half-life in [4] of 2.72 h.
Regarding `C[C@H](Cc1nncn1C)c1cccc(NC(=O)c2ccnc(C3CC3)n2)c1`, the IC50 in series [5] amounted to 88 nM; in series [3] it was 1700 nM. In addition, the figures for the CLint scaled in series [1] and in [2] were 30 mL/min/kg and 73 mL/min/kg, respectively.
In [6], `Cc1cc(C(=O)Nc2cccc(C3(Cc4nocc4C)COC3)c2)nc(C2CC2)n1` showed an IC50 of under 100 nM.
In series [5], `C[C@H](Sc1nncn1C)c1cccc(NC(=O)c2ccnc(C3CC3)n2)c1` yielded an IC50 of 92 nM.
Same read-out and setting: the same measure for `C[C@H]1CCCN(Cc2cc3c(c(C(F)(F)F)c2)CN(c2cccc([C@]4(c5nncn5C)C[C@@H](C)C4)c2)C3=O)C1`: at most 5 nM.
Take `CN(C)c1c2c(c3nc4ccccc4c4c3c1N=C4)NCCC2=O`: in [7], the IC50 was 167000 nM. In series [8], this molecule came in with a GI50 of 180 nM.
`C[C@H]1CCCN(Cc2cc3c(c(C(F)(F)F)c2)CN(c2cccc([C@]4(Cc5nncn5C)C[C@@H](C#N)C4)c2)C3=O)C1` yielded an IC50 in [6] of under 1 nM.
As for `Cn1cnnc1CC1(c2cccc(N3Cc4c(cc(CN5CCCC(CC#N)C5)cc4C(F)(F)F)C3=O)c2)COC1` (stereo unspecified), the IC50 in series [6] was determined as 1 nM.
`C[C@H](Cc1nncn1C)c1cccc(NC(=O)N2CCOc3cccnc32)c1` had an IC50 in series [9] of under 100 nM.
For the molecule `Cn1cnnc1CC1(c2cccc(-n3cc4c(C(F)(F)F)cc(CN5CCC6(CC6)C5)cn4c3=O)c2)COC1`, the half-inhibitory concentration (IC50) in [10] is under 100000 nM.
Molecule `Cn1cnnc1[C@H](c1cccc(-n2cc3c(C(F)(F)F)cc(CN4CCC[C@@](C)(O)C4)cn3c2=O)c1)C1CCC1` showed an IC50 in [10] of under 100000 nM.
As for `C[C@@H]1CN(Cc2cc3c(c(C(F)(F)F)c2)CN(c2cccc(C4(c5nncn5C)CC(F)(F)C4)c2)C3=O)CCO1`, the concentration for half-maximal inhibition (IC50) in series [6] is at most 5 nM.
For the molecule `CN(C)c1c2c(c3nc4ccccc4c4c3c1N=C4N1C(=O)c3c4c(nc5ccccc35)C3=C(C(=O)CCN3)C(=[N+](C)C)C41)NCCC2=O` (stereo in doubt; (+)-8), it took 9700 nM to reach half-maximal inhibition in [7] (IC50). Besides, the GI50 in [8] was over 30000 nM.
In the case of `CN(C)c1c2c(c3nc4ccccc4c4c3c1N=C4N1C(=O)c3c4c(nc5ccccc35)C3=C(C(=O)CCN3)C(=[N+](C)C)C41)NCCC2=O` (stereo in doubt; (-)-8), in series [7], the IC50 is 7500 nM.
